Assay results as given in ChEMBL document CHEMBL4339189, “Dissymmetric pyridyl-substituted 3,5-bis(arylidene)-4-piperidones as anti-hepatoma agents by inhibiting NF-κB pathway activation” (Eur J Med Chem, 2019).
The source made the active and inactive calls. The calls are words filed in the database; no cut-off is given here.

Columns and labels:
RAW264.7 [1] = assay: Cytotoxicity against mouse RAW264.7 cells assessed as reduction in cell viability at 6.0 uM incubated for 24 hrs by MTT assay; assay type: cell-based; details: raw264.7, 24 h
HepG2 [2] = assay: Cytotoxicity against human HepG2 cells assessed as reduction in cell viability incubated for 24 hrs by MTT assay; assay type: functional, cell-based
HepG2 [3] = assay: Antitumor activity against human HepG2 cells xenografted in Balb/c nude mouse assessed as effect on tumor volume level at 0.1 mg/kg, ip administered every 2 days for 20 days and measured every 2 days; assay type: functional, organism-based
SMMC-7721 [4] = assay: Cytotoxicity against human SMMC7721 cells assessed as reduction in cell viability incubated for 24 hrs by MTT assay; assay type: functional, cell-based
SMMC-7721 [5] = assay: Induction of apoptosis in human SMMC7721 cells assessed as increase in apoptotic cell population at 4.0 uM incubated for 24 hrs by Annexin V-FITC/propidium iodide staining based flow cytometry; assay type: functional
HepG2 [6] = assay: Antitumor activity against human HepG2 cells xenografted in Balb/c nude mouse assessed as induction of wrinkled abnormalities on cell morphology at 10 mg/kg, ip administered every 2 days for 20 days and measured every 2 days by H and E staining based assay; assay type: functional, organism-based
SMMC-7721 [7] = assay: Induction of apoptosis in human SMMC7721 cells assessed as increase in apoptotic cell population at 4.0 uM incubated for 24 hrs by Annexin V-FITC/propidium iodide staining based flow cytometry relative to control; assay type: functional
RAW264.7 [8] = assay: Antiinflammatory activity in mouse RAW264.7 cells assessed as inhibition of LPS-stimulated TNF-alpha production at 6.0 uM preincubated for 2 hrs followed by LPS stimulaton measured after 22 hrs by ELISA relative to control; assay type: functional
HepG2 [9] = assay: Induction of apoptosis in human HepG2 cells assessed as increase in apoptotic cell population at 4.0 uM incubated for 24 hrs by Annexin V-FITC/propidium iodide staining based flow cytometry relative to control; assay type: functional
QGY-7703 [10] = assay: Induction of apoptosis in human QGY7703 cells assessed as increase in apoptotic cell population at 4.0 uM incubated for 24 hrs by Annexin V-FITC/propidium iodide staining based flow cytometry relative to control; assay type: functional
[11] = Cytotoxicity against human HHL5 cells assessed as reduction in cell viability incubated for 24 hrs by MTT assay; assay type: cell-based; details: HHL-5, 24 h
RAW264.7 [12] = assay: Antiinflammatory activity in mouse RAW264.7 cells assessed as inhibition of LPS-stimulated IL-6 production 6.0 uM preincubated for 2 hrs followed by LPS stimulaton measured after 22 hrs by ELISA relative to control; assay type: functional
HepG2 [13] = assay: Antitumor activity against human HepG2 cells xenografted in Balb/c nude mouse assessed as induction of incomplete cells at 10 mg/kg, ip administered every 2 days for 20 days and measured every 2 days by H and E staining based assay; assay type: functional, organism-based
HepG2 [14] = assay: Induction of apoptosis in human HepG2 cells assessed as reduction in Bcl-2 expression up to 4 uM after 24 hrs by Western blot analysis; assay type: functional, cell-based
HepG2 [15] = assay: Induction of apoptosis in human HepG2 cells assessed as increase in Bax expression up to 4 uM after 24 hrs by Western blot analysis; assay type: functional, cell-based
[16] = target: Transcription factor p65 (Mus musculus) (UniProt Q04207); assay: Inhibition of NFkappaB activation in mouse RAW264.7 cells assessed as reduction in LPS-induced p65 phosphorylation at 1 to 4 uM incubated for 2 hrs after pre-incubation with LPS for 15 mins by Western blot analysis; assay type: cell-based
Chain of Transcription factor p65 (Mus musculus) (Q04207 whole entry): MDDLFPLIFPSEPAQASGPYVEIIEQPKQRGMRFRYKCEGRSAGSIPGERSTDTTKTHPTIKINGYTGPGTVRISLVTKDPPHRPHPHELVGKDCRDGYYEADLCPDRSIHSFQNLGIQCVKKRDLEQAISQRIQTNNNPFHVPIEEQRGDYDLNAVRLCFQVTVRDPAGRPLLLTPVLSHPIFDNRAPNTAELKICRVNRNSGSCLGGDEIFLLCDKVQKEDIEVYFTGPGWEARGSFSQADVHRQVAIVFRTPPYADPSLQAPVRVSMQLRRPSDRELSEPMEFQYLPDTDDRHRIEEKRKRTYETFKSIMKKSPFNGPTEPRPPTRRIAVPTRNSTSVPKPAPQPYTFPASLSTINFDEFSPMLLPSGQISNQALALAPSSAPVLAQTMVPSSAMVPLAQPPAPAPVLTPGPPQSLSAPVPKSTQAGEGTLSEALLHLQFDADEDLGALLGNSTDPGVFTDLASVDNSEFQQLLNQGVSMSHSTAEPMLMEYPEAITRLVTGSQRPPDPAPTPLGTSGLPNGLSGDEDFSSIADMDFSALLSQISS

L02 = assay: Cytotoxicity against human LO2 cells assessed as reduction in cell viability incubated for 24 hrs by MTT assay; assay type: cell-based; details: L02, 24 h
QGY-7703 [17] = assay: Induction of apoptosis in human QGY7703 cells assessed as increase in apoptotic cell population at 2.0 uM incubated for 24 hrs by Annexin V-FITC/propidium iodide staining based flow cytometry relative to control; assay type: functional
SMMC-7721 [18] = assay: Induction of apoptosis in human SMMC7721 cells assessed as increase in apoptotic cell population at 2.0 uM incubated for 24 hrs by Annexin V-FITC/propidium iodide staining based flow cytometry relative to control; assay type: functional
[19] = target: Transcription factor p65 (Homo sapiens) (UniProt Q04206); assay: Inhibition of LPS-induced NFkappaB p65 nuclear translocation in human HepG2 cells at 4 uM incubated for 2 hrs after pre-incubation with LPS for 15 mins by DAPI staining-based immunofluorescence assay; assay type: cell-based
Chain of Transcription factor p65 (Homo sapiens) (Q04206 whole entry): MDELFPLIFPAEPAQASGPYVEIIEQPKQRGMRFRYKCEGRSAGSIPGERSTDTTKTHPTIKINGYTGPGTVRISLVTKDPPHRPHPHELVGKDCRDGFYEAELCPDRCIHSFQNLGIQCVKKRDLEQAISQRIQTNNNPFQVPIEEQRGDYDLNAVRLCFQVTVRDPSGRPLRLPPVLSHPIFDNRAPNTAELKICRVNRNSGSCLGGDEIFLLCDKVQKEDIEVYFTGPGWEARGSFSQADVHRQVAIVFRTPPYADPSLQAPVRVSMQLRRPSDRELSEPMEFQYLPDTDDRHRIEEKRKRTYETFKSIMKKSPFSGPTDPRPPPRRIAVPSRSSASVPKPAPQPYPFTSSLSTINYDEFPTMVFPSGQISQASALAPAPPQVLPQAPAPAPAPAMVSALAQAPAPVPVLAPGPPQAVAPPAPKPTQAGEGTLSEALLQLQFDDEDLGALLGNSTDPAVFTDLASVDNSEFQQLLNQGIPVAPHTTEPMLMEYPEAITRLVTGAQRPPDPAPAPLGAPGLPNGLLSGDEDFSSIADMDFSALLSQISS

Mus musculus [20] = assay: Antiinflammatory activity in human HepG2 cells xenografted Balb/c nude mouse assessed as reduction in TNFalpha protein expression at 10 mg/kg, ip administered every 2 days for 20 days and measured every 2 days by immunohistochemistry; assay type: functional, organism-based
[21] = Toxicity in Balb/c nude mouse xenografted with human HepG2 cells assessed as increase in body weight at 0.1 to 10 mg/kg, ip administered every 2 days for 20 days and measured every 2 days; assay type: organism-based; details: in vivo
[22] = target: T1, NF-kappa-B inhibitor alpha (Mus musculus) (UniProt Q9Z1E3); assay: Inhibition of NFkappaB signalling activation in mouse RAW264.7 cells assessed as reduction in LPS-induced IkBalpha phosphorylation at 1 to 4 uM incubated for 2 hrs after pre-incubation with LPS for 15 mins by Western blot analysis; assay type: cell-based
T1 sequence (whole entry): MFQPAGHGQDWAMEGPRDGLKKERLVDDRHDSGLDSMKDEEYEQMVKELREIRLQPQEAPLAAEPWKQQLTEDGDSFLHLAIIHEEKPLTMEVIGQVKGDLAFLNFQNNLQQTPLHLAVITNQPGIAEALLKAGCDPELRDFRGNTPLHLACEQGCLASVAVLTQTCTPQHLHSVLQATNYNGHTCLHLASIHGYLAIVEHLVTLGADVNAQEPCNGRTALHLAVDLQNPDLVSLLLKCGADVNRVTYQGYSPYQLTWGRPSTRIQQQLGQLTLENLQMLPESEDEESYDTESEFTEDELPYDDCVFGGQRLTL

HepG2 [23] = assay: Antitumor activity against human HepG2 cells xenografted in Balb/c nude mouse assessed as tumor volume level at 10 mg/kg, ip administered every 2 days for 20 days and measured every 2 days; assay type: functional
HepG2 [24] = assay: Induction of apoptosis in human HepG2 cells xenografted in Balb/c nude mouse assessed as reduction in Bcl-2 protein expression at 0.1 mg/kg, ip administered every 2 days for 20 days and measured every 2 days by immunohistochemistry; assay type: functional, organism-based
Mus musculus [25] = assay: Antiinflammatory activity in human HepG2 cells xenografted Balb/c nude mouse assessed as reduction in TNFalpha protein expression at 0.1 mg/kg, ip administered every 2 days for 20 days and measured every 2 days by immunohistochemistry; assay type: functional, organism-based
HepG2 [26] = assay: Induction of apoptosis in human HepG2 cells xenografted in Balb/c nude mouse assessed as reduction in Bcl-2 protein expression at 10 mg/kg, ip administered every 2 days for 20 days and measured every 2 days by immunohistochemistry; assay type: functional, organism-based
QGY-7703 [27] = assay: Induction of apoptosis in human QGY7703 cells assessed as increase in apoptotic cell population at 4.0 uM incubated for 24 hrs by Annexin V-FITC/propidium iodide staining based flow cytometry; assay type: functional
HepG2 [28] = assay: Induction of apoptosis in human HepG2 cells xenografted in Balb/c nude mouse assessed as reduction in Bcl-2 protein expression at 1 mg/kg, ip administered every 2 days for 20 days and measured every 2 days by immunohistochemistry; assay type: functional, organism-based

O=C1/C(=C/c2cccnc2)CN(S(=O)(=O)c2ccc(C(F)(F)F)cc2)C/C1=C\c1ccccc1C(F)(F)F
Activity (RAW264.7 [1]): Non-Toxic
Activity (HepG2 [2]): Dose-dependent effect
IC50 (HepG2 [2]; HepG2, 24 h): 1.71 µM
Activity (HepG2 [3]): inactive
Activity (SMMC-7721 [4]): Dose-dependent effect
IC50 (SMMC-7721 [4]; SMMC-7721, 24 h): 1.73 µM
Activity (SMMC-7721 [5]): Dose-dependent effect
Activity (HepG2 [6]): Active
Activity (SMMC-7721 [7]): >70%
inhibition at 6 µM (RAW264.7 [8]): ≤ 15%
Activity (HepG2 [9]): >70%
Activity (QGY-7703 [10]): >70%
IC50 [11]: 15.8 µM
inhibition (INH) (RAW264.7 [12]): <=15%
Activity (HepG2 [13]): Active
Activity (HepG2 [14]): Dose-dependent effect
Activity (HepG2 [15]): Dose-dependent effect
inhibition [16]: Dose-dependent effect
IC50 (L02): 14.3 µM
Activity (QGY-7703 [17]): 58%
Activity (SMMC-7721 [18]): 40%
inhibition [19]: Active
Activity (Mus musculus [20]): Active
Activity [21]: Non-Toxic
inhibition [22]: Dose-dependent effect
Activity (HepG2 [23]): <200 mm3
Activity (HepG2 [24]): inactive
Activity (Mus musculus [25]): inactive
Activity (HepG2 [26]): Active
Activity (QGY-7703 [27]): Dose-dependent effect
Activity (HepG2 [28]): Active
